Activity calls are given as the source filed them.
Legend:
Format in all cases: functional, organism-based
Conditions in all cases: Trachea
Pseudomonas aeruginosa [1] = experiment: Antimicrobial activity against Pseudomonas aeruginosa 9A10 tracheal isolates from mechanically ventilated chronic respiratory insufficiency patient
Pseudomonas aeruginosa [2] = experiment: Antimicrobial activity against Pseudomonas aeruginosa 65.33-4 tracheal isolates from mechanically ventilated tuberculosis patient
Pseudomonas aeruginosa [3] = experiment: Antimicrobial activity against Pseudomonas aeruginosa 24F4 tracheal isolates from mechanically ventilated chronic respiratory insufficiency patient
Pseudomonas aeruginosa [4] = experiment: Antimicrobial activity against Pseudomonas aeruginosa 24D5 tracheal isolates from mechanically ventilated chronic respiratory insufficiency patient
Pseudomonas aeruginosa [5] = experiment: Antimicrobial activity against Pseudomonas aeruginosa 65.38-4 tracheal isolates from mechanically ventilated tuberculosis patient
Pseudomonas aeruginosa [6] = experiment: Antimicrobial activity against Pseudomonas aeruginosa 65.18-3 tracheal isolates from mechanically ventilated tuberculosis patient
Pseudomonas aeruginosa [7] = experiment: Antimicrobial activity against Pseudomonas aeruginosa 15G2 tracheal isolates from mechanically ventilated chronic respiratory insufficiency patient
Pseudomonas aeruginosa [8] = experiment: Antimicrobial activity against Pseudomonas aeruginosa 1A9 tracheal isolates from mechanically ventilated tuberculosis patient
Pseudomonas aeruginosa [9] = experiment: Antimicrobial activity against Pseudomonas aeruginosa 2F6 tracheal isolates from mechanically ventilated tuberculosis patient
Pseudomonas aeruginosa [10] = experiment: Antimicrobial activity against Pseudomonas aeruginosa 65.18-1 tracheal isolates from mechanically ventilated tuberculosis patient
Pseudomonas aeruginosa [11] = experiment: Antimicrobial activity against Pseudomonas aeruginosa 19C5 tracheal isolates from mechanically ventilated chronic respiratory insufficiency patient
Pseudomonas aeruginosa [12] = experiment: Antimicrobial activity against Pseudomonas aeruginosa 65.18-2 tracheal isolates from mechanically ventilated tuberculosis patient
Pseudomonas aeruginosa [13] = experiment: Antimicrobial activity against Pseudomonas aeruginosa 65.33-3 tracheal isolates from mechanically ventilated tuberculosis patient
Pseudomonas aeruginosa [14] = experiment: Antimicrobial activity against Pseudomonas aeruginosa 2A3 tracheal isolates from mechanically ventilated tuberculosis patient
Pseudomonas aeruginosa [15] = experiment: Antimicrobial activity against Pseudomonas aeruginosa 13D11 tracheal isolates from mechanically ventilated chronic respiratory insufficiency patient
Pseudomonas aeruginosa [16] = experiment: Antimicrobial activity against Pseudomonas aeruginosa 2B5 tracheal isolates from mechanically ventilated tuberculosis patient
Pseudomonas aeruginosa [17] = experiment: Antimicrobial activity against Pseudomonas aeruginosa 3B1 tracheal isolates from mechanically ventilated tuberculosis patient
Pseudomonas aeruginosa [18] = experiment: Antimicrobial activity against Pseudomonas aeruginosa 65.38-2 tracheal isolates from mechanically ventilated tuberculosis patient
Pseudomonas aeruginosa [19] = experiment: Antimicrobial activity against Pseudomonas aeruginosa 22E3 tracheal isolates from mechanically ventilated chronic respiratory insufficiency patient
Pseudomonas aeruginosa [20] = experiment: Antimicrobial activity against Pseudomonas aeruginosa 29H1 tracheal isolates from mechanically ventilated chronic respiratory insufficiency patient
Pseudomonas aeruginosa [21] = experiment: Antimicrobial activity against Pseudomonas aeruginosa 22D9 tracheal isolates from mechanically ventilated chronic respiratory insufficiency patient
Pseudomonas aeruginosa [22] = experiment: Antimicrobial activity against Pseudomonas aeruginosa 29G8 tracheal isolates from mechanically ventilated chronic respiratory insufficiency patient
Pseudomonas aeruginosa [23] = experiment: Antimicrobial activity against Pseudomonas aeruginosa 10A6 tracheal isolates from mechanically ventilated chronic respiratory insufficiency patient
Pseudomonas aeruginosa [24] = experiment: Antimicrobial activity against Pseudomonas aeruginosa 16D5 tracheal isolates from mechanically ventilated chronic respiratory insufficiency patient
Pseudomonas aeruginosa [25] = experiment: Antimicrobial activity against Pseudomonas aeruginosa 12A7 tracheal isolates from mechanically ventilated chronic respiratory insufficiency patient
Pseudomonas aeruginosa [26] = experiment: Antimicrobial activity against Pseudomonas aeruginosa 1C9 tracheal isolates from mechanically ventilated tuberculosis patient
Pseudomonas aeruginosa [27] = experiment: Antimicrobial activity against Pseudomonas aeruginosa 2A1 tracheal isolates from mechanically ventilated tuberculosis patient
Pseudomonas aeruginosa [28] = experiment: Antimicrobial activity against Pseudomonas aeruginosa IC7 tracheal isolates from mechanically ventilated tuberculosis patient
Pseudomonas aeruginosa [29] = experiment: Antimicrobial activity against Pseudomonas aeruginosa 65.36-2 tracheal isolates from mechanically ventilated tuberculosis patient
Pseudomonas aeruginosa [30] = experiment: Antimicrobial activity against Pseudomonas aeruginosa 19E9 tracheal isolates from mechanically ventilated chronic respiratory insufficiency patient
Pseudomonas aeruginosa [31] = experiment: Antimicrobial activity against Pseudomonas aeruginosa 24D1 tracheal isolates from mechanically ventilated chronic respiratory insufficiency patient
Pseudomonas aeruginosa [32] = experiment: Antimicrobial activity against Pseudomonas aeruginosa 19E2 tracheal isolates from mechanically ventilated chronic respiratory insufficiency patient
Pseudomonas aeruginosa [33] = experiment: Antimicrobial activity against Pseudomonas aeruginosa IA5 tracheal isolates from mechanically ventilated tuberculosis patient
Pseudomonas aeruginosa [34] = experiment: Antimicrobial activity against Pseudomonas aeruginosa 24E2 tracheal isolates from mechanically ventilated chronic respiratory insufficiency patient
Pseudomonas aeruginosa [35] = experiment: Antimicrobial activity against Pseudomonas aeruginosa 16D2 tracheal isolates from mechanically ventilated chronic respiratory insufficiency patient
Pseudomonas aeruginosa [36] = experiment: Antimicrobial activity against Pseudomonas aeruginosa 19C12 tracheal isolates from mechanically ventilated chronic respiratory insufficiency patient
Pseudomonas aeruginosa [37] = experiment: Antimicrobial activity against Pseudomonas aeruginosa 13D6 tracheal isolates from mechanically ventilated chronic respiratory insufficiency patient
Pseudomonas aeruginosa [38] = experiment: Antimicrobial activity against Pseudomonas aeruginosa 24E1 tracheal isolates from mechanically ventilated chronic respiratory insufficiency patient
Pseudomonas aeruginosa [39] = experiment: Antimicrobial activity against Pseudomonas aeruginosa 19B1 tracheal isolates from mechanically ventilated chronic respiratory insufficiency patient
Pseudomonas aeruginosa [40] = experiment: Antimicrobial activity against Pseudomonas aeruginosa 19E1 tracheal isolates from mechanically ventilated chronic respiratory insufficiency patient
Pseudomonas aeruginosa [41] = experiment: Antimicrobial activity against Pseudomonas aeruginosa 19F2 tracheal isolates from mechanically ventilated chronic respiratory insufficiency patient
Pseudomonas aeruginosa [42] = experiment: Antimicrobial activity against Pseudomonas aeruginosa 13D3 tracheal isolates from mechanically ventilated chronic respiratory insufficiency patient
Pseudomonas aeruginosa [43] = experiment: Antimicrobial activity against Pseudomonas aeruginosa 23C5 tracheal isolates from mechanically ventilated chronic respiratory insufficiency patient
Pseudomonas aeruginosa [44] = experiment: Antimicrobial activity against Pseudomonas aeruginosa 19F1 tracheal isolates from mechanically ventilated chronic respiratory insufficiency patient
Pseudomonas aeruginosa [45] = experiment: Antimicrobial activity against Pseudomonas aeruginosa 24E6 tracheal isolates from mechanically ventilated chronic respiratory insufficiency patient
Pseudomonas aeruginosa [46] = experiment: Antimicrobial activity against Pseudomonas aeruginosa 15G10 tracheal isolates from mechanically ventilated chronic respiratory insufficiency patient
Pseudomonas aeruginosa [47] = experiment: Antimicrobial activity against Pseudomonas aeruginosa 19C2 tracheal isolates from mechanically ventilated chronic respiratory insufficiency patient
Pseudomonas aeruginosa [48] = experiment: Antimicrobial activity against Pseudomonas aeruginosa 19E12 tracheal isolates from mechanically ventilated chronic respiratory insufficiency patient
Pseudomonas aeruginosa [49] = experiment: Antimicrobial activity against Pseudomonas aeruginosa 19D10 tracheal isolates from mechanically ventilated chronic respiratory insufficiency patient

CCn1cc(C(=O)O)c(=O)c2cc(F)c(N3CCNCC3)cc21
inactive: Activity (Pseudomonas aeruginosa [4]) | Activity (Pseudomonas aeruginosa [7]) | Activity (Pseudomonas aeruginosa [20])
active: Activity (Pseudomonas aeruginosa [1]) | Activity (Pseudomonas aeruginosa [2]) | Activity (Pseudomonas aeruginosa [3]) | Activity (Pseudomonas aeruginosa [5]) | Activity (Pseudomonas aeruginosa [6]) | Activity (Pseudomonas aeruginosa [8]) | Activity (Pseudomonas aeruginosa [9]) | Activity (Pseudomonas aeruginosa [10]) | Activity (Pseudomonas aeruginosa [11]) | Activity (Pseudomonas aeruginosa [12]) | Activity (Pseudomonas aeruginosa [13]) | Activity (Pseudomonas aeruginosa [14]) | Activity (Pseudomonas aeruginosa [15]) | Activity (Pseudomonas aeruginosa [16]) | Activity (Pseudomonas aeruginosa [17]) | Activity (Pseudomonas aeruginosa [18]) | Activity (Pseudomonas aeruginosa [19]) | Activity (Pseudomonas aeruginosa [21]) | Activity (Pseudomonas aeruginosa [22]) | Activity (Pseudomonas aeruginosa [23]) | Activity (Pseudomonas aeruginosa [24]) | Activity (Pseudomonas aeruginosa [25]) | Activity (Pseudomonas aeruginosa [26]) | Activity (Pseudomonas aeruginosa [27]) | Activity (Pseudomonas aeruginosa [28]) | Activity (Pseudomonas aeruginosa [29]) | Activity (Pseudomonas aeruginosa [30]) | Activity (Pseudomonas aeruginosa [31]) | Activity (Pseudomonas aeruginosa [32]) | Activity (Pseudomonas aeruginosa [33])

CC(C)(O/N=C(\C(=O)N[C@@H]1C(=O)N2C(C(=O)[O-])=C(C[n+]3ccccc3)CS[C@H]12)c1csc(N)n1)C(=O)O
inactive: Activity (Pseudomonas aeruginosa [8]) | Activity (Pseudomonas aeruginosa [9])
active: Activity (Pseudomonas aeruginosa [34]) | Activity (Pseudomonas aeruginosa [1]) | Activity (Pseudomonas aeruginosa [2]) | Activity (Pseudomonas aeruginosa [3]) | Activity (Pseudomonas aeruginosa [4]) | Activity (Pseudomonas aeruginosa [35]) | Activity (Pseudomonas aeruginosa [36]) | Activity (Pseudomonas aeruginosa [37]) | Activity (Pseudomonas aeruginosa [38]) | Activity (Pseudomonas aeruginosa [39]) | Activity (Pseudomonas aeruginosa [6]) | Activity (Pseudomonas aeruginosa [7]) | Activity (Pseudomonas aeruginosa [10]) | Activity (Pseudomonas aeruginosa [40]) | Activity (Pseudomonas aeruginosa [41]) | Activity (Pseudomonas aeruginosa [42]) | Activity (Pseudomonas aeruginosa [43]) | Activity (Pseudomonas aeruginosa [12]) | Antimicrobial activity (Pseudomonas aeruginosa [44]) | Activity (Pseudomonas aeruginosa [14]) | Activity (Pseudomonas aeruginosa [45]) | Activity (Pseudomonas aeruginosa [15]) | Activity (Pseudomonas aeruginosa [16]) | Activity (Pseudomonas aeruginosa [17]) | Activity (Pseudomonas aeruginosa [19]) | Activity (Pseudomonas aeruginosa [46]) | Activity (Pseudomonas aeruginosa [21]) | Activity (Pseudomonas aeruginosa [22]) | Activity (Pseudomonas aeruginosa [47]) | Activity (Pseudomonas aeruginosa [23]) | Activity (Pseudomonas aeruginosa [24]) | Activity (Pseudomonas aeruginosa [25]) | Activity (Pseudomonas aeruginosa [28]) | Activity (Pseudomonas aeruginosa [29]) | Activity (Pseudomonas aeruginosa [48]) | Activity (Pseudomonas aeruginosa [30]) | Activity (Pseudomonas aeruginosa [49]) | Activity (Pseudomonas aeruginosa [31]) | Activity (Pseudomonas aeruginosa [32]) | Activity (Pseudomonas aeruginosa [33])
